The subject of test [1] is human prostate cancer LNCaP cells. Briefly: Cytotoxic action on LNCaP cells (WST-8, 96 hr). Format: cell-based. The following applies: 96 hr culture. As for the experimental part:
The cytotoxic action of the compound of the present invention against human cancer cells was evaluated in vitro. In this experiment, (+)-JQ1 (Nature volume 468, pages 1067-1073 (23 Dec. 2010)) known to have an inhibitory activity on the binding of BRD4 protein and a ligand therefor was used as a positive control drug. Respective cells were suspended in 10% FBS/RPMI1640, seeded in a 96 well plate and cultured at 5% CO2, 37° C. overnight. A test compound dissolved in DMSO was diluted with 10% FBS/RPMI1640 and added and the cells were further cultured for 96 hr. After culturing, the viable cell number was measured using a cell number measurement WST-8 kit (Kishida Chemical Co., Ltd.). As a control, the measurement was performed under conditions free of the test compound. The cytotoxic activity of the compound of the present invention against human prostate cancer LNCaP cells is shown in IC50 value in Table 1. The IC50 value is a concentration of the compound showing 50% cell survival rate when the cell survival rate thereof under compound untreated condition is 100%. It was calculated from the straight line connecting the cell survival rate at two points enclosing the 50% cell survival rate and the compound concentration. In addition, the cytotoxic activity against respective cancer cells of human acute myeloid leukemia MV-4-11 cell, human chronic myeloid leukemia K562 cell, human multiple myeloma MM.1S cell, human diffuse large B-cell lymphoma SU-DHL-6 cell, human T-cell leukemia Jurkat cells, human Burkitt lymphoma Raji cell, human castration-resistant prostate cancer PC-3 cell, human AR-V7 positive castration-resistant prostate cancer 22Rv1 cell, human ovarian cancer A2780 cell, human cisplatin-resistant ovarian cancer SK-OV-03 cell, human bladder cancer 5637 cell, human breast cancer ZR-75-1 cell, human triple negative breast cancer MDA-MB-231 cell, human uterus cervix cancer HeLa cell, human uterine sarcoma MES-SA cell, human stomach cancer SNU-16 cell, human non-small cell lung cancer NCI-H2126 cell, human EGFRT790M mutation-positive non-small cell lung cancer NCI-H1975 cell, human small cell lung cancer NCI-H82 cell, human large cell lung cancer NCI-H460 cell, human colon cancer HCT116 cell, human glioma U-87 MG cell, human pancreatic cancer BxPC-3 cell, human liver cancer HLF cell, human bile duct cancer HuCCT1 cell, human renal cell cancer 786-O cell, and human fibrosarcoma HT1080 cell is shown in IC50 value in Table 2.
In general terms: Tetrazolium dyes change colour on reduction, which living cells bring about.

The target in test [2] is BRD4 protein (Homo sapiens (Human), UniProt O60885). The experiment in a line: BRD4 protein degradation inducing action in LNCaP cells (immunofluorescence, 6 hr). Conditions: anti-BRD4 fluorescence intensity. Format: cell-based. The method, then:
The degradation inducing action of the compound of the present invention on BRD4 proteins in cancer cells was evaluated in vitro using human prostate cancer LNCaP cells. LNCaP cells were suspended in 10% FBS/RPMI1640, seeded in a 96 well Cell carrier plate (Perkin Elmer) and cultured at 5% CO2, 37° C. overnight. A test compound dissolved in DMSO was diluted with 10% FBS/RPMI1640 and added and the cells were further cultured for 6 hr. After culturing, the cells were immobilized with 4% para-formaldehyde/PBS and further subjected to a permeation treatment with 0.25% Triton X-100/PBS. Thereafter, the cells were blocked with 10% BSA/PBS, Anti-BRD4 (Sigma-Aldrich) solution was added and the cells were incubated at 4° C. overnight. Furthermore, Goat anti-Rabbit IgG(H+L) Cross-Adsorbed Secondary Antibody, Alexa Fluor 546 (Thermo Fisher Scientific) solution, 0.5 μg/mL Hoechst 33342 (Sigma-Aldrich), and 14 μM Acti-Stain 555 Fluorescent Phalloidin (Cytoskeleton) were added. After incubation for 1 hr, BRD4 protein amount was measured by Operetta (Perkin Elmer) as fluorescence intensity (excitation: 560 nm, emission: 572 nm). The BRD4 protein degradation inducing activity of the compound of the present invention in LNCaP cells is shown in DC50 value in Table 3. The DC50 value is a concentration of the compound showing 50% fluorescence intensity when the fluorescence intensity thereof under compound untreated condition is 100%. It was calculated from the straight line connecting the fluorescence intensity at two points enclosing the 50% fluorescence intensity and the compound concentration.

For orientation: pIC50 means −log10 of the IC50, conventionally taken in molar units. The DC50 is the midpoint of the concentration-degradation curve.

The structures appear in SMILES notation. pIC50: −log10 of the molar value.

With `Cc1sc2c(c1C)C(c1ccc(-c3ccc(C(=O)NCc4ccc(S(=O)(=O)Nc5ccc(C)c6c(C#N)c[nH]c56)cc4)c(Cl)c3)cc1)=N[C@@H](CC(=O)OC(C)(C)C)c1nnc(C)n1-2` [Example Compound 140, t-butyl [(6S)-4-{3′-chloro-4′-[({4-[(3-cyano-4-methyl-1H-indol-7-yl)sulfamoyl]phenyl}methyl)carbamoyl][1,1′-biphenyl]-4-yl}-2,3,9-trimethyl-6H-thieno[3,2-f][1,2,4]triazolo[4,3-a][1,4]diazepin-6-yl]acetate], the pIC50 in test [1] was 9.28. In test [2], this compound showed a DC50 of 0.38 nM.

Regarding `COC(=O)C[C@@H]1N=C(c2ccc(-c3ccc(C(=O)NCc4ccc(S(=O)(=O)Nc5ccc(C)c6c(C#N)c[nH]c56)cc4)c(OC)c3)cc2)c2c(sc(C)c2C)-n2c(C)nnc21` [Example 52, methyl [(6S)-4-{4′-[({4-[(3-cyano-4-methyl-1H-indol-7-yl)sulfamoyl]phenyl}methyl)carbamoyl]-3′-methoxy[1,1′-biphenyl]-4-yl}-2,3,9-trimethyl-6H-thieno[3,2-f][1,2,4]triazolo[4,3-a][1,4]diazepin-6-yl]acetate], the pIC50 in test [1] is 9.26. Also, half-maximal degradation in test [2] (DC50) was put at 0.3 nM.

The compound `COC(=O)C[C@@H]1N=C(c2ccc(-c3ccc(C(=O)NCc4ccc(S(=O)(=O)Nc5ccc(C)c6c(Cl)c[nH]c56)cc4)cc3)cc2)c2c(sc(C)c2C)-n2c(C)nnc21` [Example 8, methyl [(6S)-4-{4′-[({4-[(3-chloro-4-methyl-1H-indol-7-yl)sulfamoyl]phenyl}methyl)carbamoyl][1,1′-biphenyl]-4-yl}-2,3,9-trimethyl-6H-thieno[3,2-f][1,2,4]triazolo[4,3-a][1,4]diazepin-6-yl]acetate] had a pIC50 in test [1] of 8.55. In test [2], half-maximal degradation (DC50) was put at 2.4 nM.

In test [1], `COC(=O)C[C@@H]1N=C(c2ccc(-c3ccc(C(=O)NCCc4ccc(S(=O)(=O)Nc5ccc(C)c6c(C#N)c[nH]c56)cc4)nc3)cc2)c2c(sc(C)c2C)-n2c(C)nnc21` [Example 90, methyl [(6S)-4-(4-{6-[(2-{4-[(3-cyano-4-methyl-1H-indol-7-yl)sulfamoyl]phenyl}ethyl)carbamoyl]pyridin-3-yl}phenyl)-2,3,9-trimethyl-6H-thieno[3,2-f][1,2,4]triazolo[4,3-a][1,4]diazepin-6-yl]acetate] gave a pIC50 of 9.72. The same compound had a DC50 in test [2] of 0.091 nM.

On to `COC(=O)C[C@@H]1N=C(c2ccc(-c3cnc(C(=O)NCCc4ccc(S(=O)(=O)Nc5ccc(C)c6c(C#N)c[nH]c56)cc4)cn3)cc2)c2c(sc(C)c2C)-n2c(C)nnc21` [Example 102, methyl [(6S)-4-(4-{5-[(2-{4-[(3-cyano-4-methyl-1H-indol-7-yl)sulfamoyl]phenyl}ethyl)carbamoyl]pyrazin-2-yl}phenyl)-2,3,9-trimethyl-6H-thieno[3,2-f][1,2,4]triazolo[4,3-a][1,4]diazepin-6-yl]acetate], for which, in test [1], the pIC50 was 10.15. Also, the DC50 in test [2] was 0.036 nM.

`CCc1ccc(NS(=O)(=O)c2ccc([C@@H](C)NC(=O)c3ccc(-c4ccc(C5=N[C@@H](CC(=O)OC)c6nnc(C)n6-c6sc(C)c(C)c65)cc4)cc3C)cc2)c2[nH]cc(C#N)c12` [Example Compound 123, methyl [(6S)-4-(4′-{[(1R)-1-{4-[(3-cyano-4-ethyl-1H-indol-7-yl)sulfamoyl]phenyl}ethyl]carbamoyl}-3′-methyl[1,1′-biphenyl]-4-yl)-2,3,9-trimethyl-6H-thieno[3,2-f][1,2,4]triazolo[4,3-a][1,4]diazepin-6-yl]acetate] gave a pIC50 in test [1] of 9.49. Further, the DC50 in test [2] is 0.21 nM.

`Cc1sc2c(c1C)C(c1ccc(-c3ccc(C(=O)NCc4ccc(S(=O)(=O)Nc5ccc(C)c6c(C#N)c[nH]c56)cc4)c(F)c3F)cc1)=N[C@@H](CC(=O)OC(C)(C)C)c1nnc(C)n1-2` [Example Compound 138, t-butyl [(6S)-4-{4′-[({4-[(3-cyano-4-methyl-1H-indol-7-yl)sulfamoyl]phenyl}methyl)carbamoyl]-2′,3′-difluoro[1,1′-biphenyl]-4-yl}-2,3,9-trimethyl-6H-thieno[3,2-f][1,2,4]triazolo[4,3-a][1,4]diazepin-6-yl]acetate] gave a negative-log IC50 (pIC50) in test [1] of 9.11. In test [2], this compound gave a DC50 of 0.32 nM.

Consider `COC(=O)C[C@@H]1N=C(c2ccc(-c3cnc(C(=O)NCc4ccc(S(=O)(=O)Nc5ccc(C)c6c(C#N)c[nH]c56)cc4)c(F)c3)cc2)c2c(sc(C)c2C)-n2c(C)nnc21` [Example 77, methyl [(6S)-4-(4-{6-[({4-[(3-cyano-4-methyl-1H-indol-7-yl)sulfamoyl]phenyl}methyl)carbamoyl]-5-fluoropyridin-3-yl}phenyl)-2,3,9-trimethyl-6H-thieno[3,2-f][1,2,4]triazolo[4,3-a][1,4]diazepin-6-yl]acetate], for which the pIC50 in test [1] is 9.80. For the same compound, the DC50 in test [2] amounted to 0.048 nM.

For `COC(=O)C[C@@H]1N=C(c2ccc(-c3ccc(C(=O)NCc4ccc(S(=O)(=O)Nc5ccc(C)c6c(C#N)c[nH]c56)cc4)c(C)c3)cc2)c2c(sc(C)c2C)-n2c(C)nnc21` [Example 50, methyl [(6S)-4-{4′-[({4-[(3-cyano-4-methyl-1H-indol-7-yl)sulfamoyl]phenyl}methyl)carbamoyl]-3′-methyl[1,1′-biphenyl]-4-yl}-2,3,9-trimethyl-6H-thieno[3,2-f][1,2,4]triazolo[4,3-a][1,4]diazepin-6-yl]acetate], the pIC50 in test [1] is 9.64. This compound also yielded a DC50 in test [2] of 0.13 nM.

In turn, `COC(=O)C[C@@H]1N=C(c2ccc(-c3cnc(C(=O)NCc4ccc(S(=O)(=O)Nc5ccc(C)c6c(C#N)c[nH]c56)cc4)cc3C)cc2)c2c(sc(C)c2C)-n2c(C)nnc21` [Example 101, methyl [(6S)-4-(4-{6-[({4-[(3-cyano-4-methyl-1H-indol-7-yl)sulfamoyl]phenyl}methyl)carbamoyl]-4-methylpyridin-3-yl}phenyl)-2,3,9-trimethyl-6H-thieno[3,2-f][1,2,4]triazolo[4,3-a][1,4]diazepin-6-yl]acetate] gave a negative-log IC50 (pIC50) in test [1] of 9.57. In test [2], this compound gave a half-maximal degradation concentration (DC50) of 0.15 nM.

`Cc1cc(-c2ccc(C3=N[C@@H](CC(=O)OC(C)(C)C)c4nnc(C)n4-c4sc(C)c(C)c43)cc2)ccc1C(=O)NCc1ccc(S(=O)(=O)Nc2ccc(C)c3c(C#N)c[nH]c23)cc1` [Example Compound 141, t-butyl [(6S)-4-{4′-[({4-[(3-cyano-4-methyl-1H-indol-7-yl)sulfamoyl]phenyl}methyl)carbamoyl]-3′-methyl[1,1′-biphenyl]-4-yl}-2,3,9-trimethyl-6H-thieno[3,2-f][1,2,4]triazolo[4,3-a][1,4]diazepin-6-yl]acetate] gave a pIC50 in test [1] of 9.04. Also, half-maximal degradation in test [2] (DC50) was put at 0.47 nM.

As for `Cc1sc2c(c1C)C(c1ccc(-c3ccc(C(=O)NCc4ccc(S(=O)(=O)Nc5ccc(C)c6c(C#N)c[nH]c56)cc4)cc3Cl)cc1)=N[C@@H](CC(=O)OC(C)(C)C)c1nnc(C)n1-2` [Example Compound 143, t-butyl [(6S)-4-{2′-chloro-4′-[({4-[(3-cyano-4-methyl-1H-indol-7-yl)sulfamoyl]phenyl}methyl)carbamoyl][1,1′-biphenyl]-4-yl}-2,3,9-trimethyl-6H-thieno[3,2-f][1,2,4]triazolo[4,3-a][1,4]diazepin-6-yl]acetate], in test [1], the pIC50 is 8.62. The same compound gave a DC50 in test [2] of 1.6 nM.

For the origin of these results see patent US11890288B2, “Sulfonamide or sulfinamide compound having effect of inducing BRD4 protein degradation and pharmaceutical use thereof” (MITSUBISHI TANABE PHARMA CORPORATION, priority 2020, dated 2024).
